The source of these data is patent publication US20040132817A1, “Use of an histone deacetylase inhibitor for the treatment of diseases associated with an hpv infection” (priority 2001, published 2004).

One assay relates to HeLa cells. Put plainly: Flow-cytometric cell cycle analysis of HeLa cells. Conditions: 6 mM sodium butyrate, 16 hours. Type of assay: cell-based, human. How it is done:
“Contr.”: untreated control. The different phases of the cell cycle are indicated (G1, S, G2, respectively). Lower part: quantification of the number of cells during the cell cycle (means of three independent experiments).
Cells were harvested by trypsinisation, washed twice with phosphate-buffered saline (PBS) and fixed overnight with 70% ethanol. The cells were resuspended in PBS containing 40 μg/ml of DNase-free RNase A and 50 μg/ml propidium iodide and cell cycle distribution was measured in a fluorescence-activated cell sorter (FACSort) from Becton Dickinson, San Jose, USA. DNA content was quantified by using the “Cell Quest” software (Becton Dickinson, San Jose, USA).
In order to elucidate the molecular effects of histone deacetylase inhibition in the context of HPV16/18-induced carcinogenesis, the HPV18-positive cervical carcinoma cell line HeLa as well as primary human foreskin keratinocytes, which were separately immortalized with amphotropic retroviruses carrying the open reading frames of HPV16 E6, E7 or E6/E7 were used in the experiments of the present invention. In order to assess the specific impact of histone deacetylase inhibition on cell proliferation, flow cytometric analysis of cellular DNA content was carried out (FIG. 1). […]

Another assay relates to cyclin D1. The assay is described as follows: Western blot of cyclin D1 in HeLa cells. The assay is classed as cell-based, human. The settings on record: 6 mM sodium butyrate, 16 hours. The procedure: 50 μg of protein were separated on 12% SDS-PAGE minigels. After electrotransfer, the filters were incubated with antibodies against cyclin D1, cyclin E, cyclin A or cdk2, cdk4 or cdk6 specific antibodies. Equal protein loading was confirmed by reincubating the filters with a monoclonal actin antibody.
(§1) Cellular extracts were separated in 8-12% SDS PAGE gels and electrotransferred as described elsewhere (Finzer et al., Oncogene 19 (2000), 3235-3244; Soto et al., Oncogene 18 (1999), 3187-3198). The following antibodies were used: cyclin E (HE 12), cyclin D 1 (HD 11), cdk2 (M2), (D-12; Santa Cruz Biotechnology, Inc., Santa Cruz, USA), cdk4 (C-22), cdk6 (C-21), p27^KIP1 (C-19), (K25020), p45^SKP2 (N-19), HPV18-E7 (N-19) and E2F-1 (KH95) (Santa Cruz Biotechnology, Inc. Santa Cruz, USA), p21^CIP1 (C24420; Transduction Laboratories, Lexington, USA), pRB (NCL-RB; Novocastra, UK), p16^INK4 (15126E, Pharmingen, San Diego, USA) and HPV 16 E7 (ZYMED Lab. Inc., San Francisco, USA). Cyclin A was kindly provided by M. Pagano (Pagano et al., EMBO J. 11 (1992), 961-971). Equal protein transfer and loading was routinely checked by incubating the filters with a monoclonal actin antibody (ICN Biomedicals, Ohio, USA).
On the technique in general: Immunoblotting shows a protein as a band on a membrane.

A further assay has as its system p16^INK4. The assay is described as follows: Western blot of p16^INK4 in HeLa cells. Conditions: 6 mM sodium butyrate, 16 hours. The assay is classed as cell-based, human. The procedure:
(A) Westem blot analysis. 50 μg of cellular protein were loaded on SDS-PAGE minigels. After electrotransfer, the filters were incubated with p21^CIP1, p27^KIP1, p16^INK4 and p45^SKP2. Equal protein loading was confirmed by a monoclonal actin antibody.
as §1

In the next assay the test system is pRb. The assay is described as follows: Western blot of pRb in HPV16 E6-, E7-, E6/E7-immortalized keratinocytes. The assay is classed as cell-based, human. The settings on record: 6 mM sodium butyrate, 16 hours. How it is done: Western blot analysis of cellular extracts obtained from E6-, E7-, and E6/E7-Immortalized cells which were separated in 8% (pRb) and 12% SDS-PAGE gels. After electrotransfer, the filters were incubated with pRb, E2F-1, cyclin E and actin antibodies. […] Due to quantitative differences of pRb and cyclin E levels in E7- and E6/E7-positive cells, the filters were exposed for different times.
HPV18-positive cervical Carcinoma cells (HeLa) were maintained in Dulbecco's modified Eagle's medium (DMEM), supplemented with 10% fetal calf serum (Gibco BRL, Rockville, USA), 1% penicillin and streptomycin (Sigma, Deisenhofen, Deutschland). Primary human keratinocytes, immortalized by E6-, E7- and E6/E7-open reading frames carrying amphotroptic retroviruses were cultivated in “Keratinocyte Medium Kit” (Sigma). Human foreskin keratinocytes transformed with HPV-16 E6/E7 either under the control of a human β-actin promoter (,1321″) or under the control of the authentic upstream regulatory region HPV (,1637″) were a kind gift of Dr. R. Schlegel (Georgetown University, Washington, USA) (Münger et al., J. Virol. 63 (1989), 4414-4423; Villa & Schlegel, Virology 181 (1991), 374-377). Cells were grown in 3 parts of keratinocyte-serum free medium (K-SFM, GIBCO, BRL) and 1 part of DMEM containing 10% fetal calf serum (GIBCO, BRL) and 0.75% gentamycin, 0.25% penicillin/streptomycin, respectively
as §1, with “Cyclin A was kindly provided by M. Pagano (Pagano et al., EMBO J. 11 (1992), 961-971). Equal protein transfer and loading was routinely checked by incubating the filters with a monoclonal actin antibody (ICN Biomedicals, Ohio, USA).” left out

Assay [1] relates to HPV16 E6/E7 transcription. The assay is described as follows: Northern blot of HPV16 transcription in "1637" keratinocytes. The settings on record: "1637" cells, NaB. The assay is classed as cell-based. How it is done:
(§2) Keratinocytes immortalized with HPV16 E6/E7 either under control of (A) the homologues viral upstream regulatory region (,1637″) or (B) of the β-actin promoter (,1321″) were incubated with NaB for various periods of time. 5 μg of RNA was separated in 1% agarose gels. The filters were hybridized with probes specific for HPV16, p21^CIP1 (=p21), β-actin and GAPDH. The positions of the 28S and 18S ribosomal RNA are indicated. (Contr.): untreated cells.
(A) 5 μg of RNA was separated in 1% agarose gels. The filters were hybridized with HPV 16, p21^CIP1 (=) p21 and GAPDH-specific probes. The positions of the 28S and 18S ribosomal RNA are indicated.
(§3) Total cellular RNA was extracted according to the guanidinium-thiocyanate procedure (Chomczynski and Sacchi, Anal. Biochem. 162 (1987), 156-159). Approximately 5 μg RNA were separated on 1% agarose gels in the presence of ethidium bromide under non-denaturing conditions and transferred to GeneScreen Plus membranes (DuPont, Bad Homburg, Deutschland). The filters were hybridized under stringent conditions with specific probes, which were labeled with ^32p-dCTP by random priming (Feinberg and Vogelstein, Anal. Biochem. 137 (1984), 266-267).

The subject of a further assay is p21^CIP1 mRNA. Put plainly: Northern blot of p21^CIP1 in "1637" keratinocytes. Type of assay: cell-based, human. Conditions: "1637" cells, six hours following NaB addition. The procedure:
as §2, §3

For the molecule `CCCC(=O)[O-].[Na+]` [sodium butyrate], the “number of cells in S-phase” value in the assay on HeLa cells (untreated 24.9%) came to 8.5%. In the assay with HeLa cells (untreated 56.8%), this molecule gave a G1 fraction of 75.7%. In addition, the “cyclin D1 protein level” value in the assay on cyclin D1 was “selectively downregulates”. Moreover, the “p16^INK4 protein level” value in the assay with p16^INK4 is “no reduction was discerned”. Also, the “pRb state in E6-containing keratinocytes” value with pRb (HPV16 E6-immortalized keratinocytes) was “hypophosphorylated”. Also, the “pRb level in E6/E7-immortalized keratinocytes” value in the assay on pRb (HPV16 E6/E7-immortalized keratinocytes) was “again revealed pRb degradation”. Also, the “pRb level in E7-expressing keratinocytes” value in the assay on pRb (HPV16 E7-immortalized keratinocytes) is recorded as “completely disappeared”. Moreover, in assay [1], the “HPV16 mRNA, time course” value is “transient HPV16 mRNA suppression”. Moreover, in the assay on p21^CIP1 mRNA, the p21CIP1 expression entry was “augmented”.
